Measured values reported in US20240383875A1, “Benzimidazole Pyridine Derivatives” (Hoffmann-La Roche Inc., priority 2022, published 2024).

Experiments:
Type in all cases: biochemical
[1] = molecular target: SIK3 (Homo sapiens, UniProt Q9Y2K2); test: Enzymatic activity assay SIK3, RapidFire mass spectrometry (phosphorylation of CHK-peptide); conditions: RapidFire MS, inhibition of SIK3; read-out: SIK3 RF IC50
How it was run: (§1)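 Compounds (12-point, 3-fold, generally 30 μM to 170 pM) were pre-incubated 30 min at ambient temperature with SIK1 (5 nM), SIK2 (0.5 nM) or SIK3 (1.5 nM) in HEPES pH 7.0/magnesium acetate buffer. CHK-peptide (10 μM solution) and ATP (100 μM solution) were then added for 45 min before formic acid quench.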

[2] = molecular target: SIK1 (Homo sapiens, UniProt P57059); test: Enzymatic activity assay SIK1, RapidFire mass spectrometry (phosphorylation of CHK-peptide); conditions: RapidFire MS, inhibition of SIK1; read-out: SIK1 RF IC50
How it was run: as §1

[3] = molecular target: SIK2 (Homo sapiens, UniProt Q9H0K1); test: Enzymatic activity assay SIK2, RapidFire mass spectrometry (phosphorylation of CHK-peptide); conditions: RapidFire MS, inhibition of SIK2; read-out: SIK2 RF IC50
How it was run: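 SIK2 (0.5 nM) in pH 7.0 HEPES buffer with 10 mM Mg acetate phosphorylates CHK-peptide (10 μM solution) with 100 μM ATP solution, 45 min ambient, then formic acid quench.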

Chain of SIK3 (Q9Y2K2 whole entry): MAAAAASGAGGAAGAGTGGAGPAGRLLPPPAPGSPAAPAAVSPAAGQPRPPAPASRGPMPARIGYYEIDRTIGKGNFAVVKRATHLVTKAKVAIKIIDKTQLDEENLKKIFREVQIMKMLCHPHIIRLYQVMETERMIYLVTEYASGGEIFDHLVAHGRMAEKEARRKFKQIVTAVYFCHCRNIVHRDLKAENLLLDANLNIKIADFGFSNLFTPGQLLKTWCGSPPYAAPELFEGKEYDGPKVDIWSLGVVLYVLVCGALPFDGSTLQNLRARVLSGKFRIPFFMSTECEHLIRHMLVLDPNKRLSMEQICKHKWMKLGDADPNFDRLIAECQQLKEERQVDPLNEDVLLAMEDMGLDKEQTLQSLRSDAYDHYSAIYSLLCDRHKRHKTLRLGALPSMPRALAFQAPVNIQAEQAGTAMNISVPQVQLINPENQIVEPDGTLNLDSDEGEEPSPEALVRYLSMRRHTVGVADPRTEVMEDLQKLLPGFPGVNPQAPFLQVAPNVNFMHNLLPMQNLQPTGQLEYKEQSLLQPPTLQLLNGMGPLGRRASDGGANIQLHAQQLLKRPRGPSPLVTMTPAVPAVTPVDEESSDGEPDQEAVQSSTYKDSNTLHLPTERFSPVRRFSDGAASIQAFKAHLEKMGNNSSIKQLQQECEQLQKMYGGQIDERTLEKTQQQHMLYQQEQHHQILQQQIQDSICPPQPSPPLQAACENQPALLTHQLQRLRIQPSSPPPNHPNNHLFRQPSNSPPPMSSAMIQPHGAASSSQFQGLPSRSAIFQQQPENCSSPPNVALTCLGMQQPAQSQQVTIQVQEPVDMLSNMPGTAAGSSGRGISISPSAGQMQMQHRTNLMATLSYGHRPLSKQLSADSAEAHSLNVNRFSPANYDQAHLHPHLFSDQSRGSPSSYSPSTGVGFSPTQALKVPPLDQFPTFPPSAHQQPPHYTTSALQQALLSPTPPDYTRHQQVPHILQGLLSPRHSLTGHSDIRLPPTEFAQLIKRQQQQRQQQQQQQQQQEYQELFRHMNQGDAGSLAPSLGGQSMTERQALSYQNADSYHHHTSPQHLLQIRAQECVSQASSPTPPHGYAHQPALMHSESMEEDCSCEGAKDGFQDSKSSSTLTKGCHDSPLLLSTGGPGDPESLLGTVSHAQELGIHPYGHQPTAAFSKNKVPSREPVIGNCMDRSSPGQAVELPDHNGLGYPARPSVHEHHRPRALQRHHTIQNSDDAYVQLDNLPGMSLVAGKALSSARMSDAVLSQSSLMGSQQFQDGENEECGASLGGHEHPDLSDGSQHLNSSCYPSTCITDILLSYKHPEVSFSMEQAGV
Chain of SIK1 (P57059 whole entry): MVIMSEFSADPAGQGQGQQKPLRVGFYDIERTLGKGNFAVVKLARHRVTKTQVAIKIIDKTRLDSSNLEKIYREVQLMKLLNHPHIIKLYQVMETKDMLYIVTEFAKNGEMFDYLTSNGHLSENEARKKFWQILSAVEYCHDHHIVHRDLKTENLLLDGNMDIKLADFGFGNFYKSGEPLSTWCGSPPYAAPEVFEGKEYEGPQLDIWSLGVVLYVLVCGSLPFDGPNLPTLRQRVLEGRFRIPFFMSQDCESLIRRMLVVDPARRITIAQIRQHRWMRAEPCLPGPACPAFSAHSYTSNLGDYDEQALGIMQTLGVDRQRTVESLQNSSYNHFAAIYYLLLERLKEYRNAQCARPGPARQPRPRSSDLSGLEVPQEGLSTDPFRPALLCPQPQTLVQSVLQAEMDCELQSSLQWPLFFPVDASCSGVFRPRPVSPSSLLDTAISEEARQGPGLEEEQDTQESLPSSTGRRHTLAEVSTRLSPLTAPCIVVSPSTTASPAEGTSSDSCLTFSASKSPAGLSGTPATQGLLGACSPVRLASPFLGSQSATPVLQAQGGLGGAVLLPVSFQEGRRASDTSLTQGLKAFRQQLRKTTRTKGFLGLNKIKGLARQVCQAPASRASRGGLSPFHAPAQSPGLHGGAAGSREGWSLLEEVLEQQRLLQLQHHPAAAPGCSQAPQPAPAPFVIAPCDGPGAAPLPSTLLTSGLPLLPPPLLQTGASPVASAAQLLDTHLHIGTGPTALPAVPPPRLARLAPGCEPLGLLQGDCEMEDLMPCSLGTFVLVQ
Chain of SIK2 (Q9H0K1 whole entry): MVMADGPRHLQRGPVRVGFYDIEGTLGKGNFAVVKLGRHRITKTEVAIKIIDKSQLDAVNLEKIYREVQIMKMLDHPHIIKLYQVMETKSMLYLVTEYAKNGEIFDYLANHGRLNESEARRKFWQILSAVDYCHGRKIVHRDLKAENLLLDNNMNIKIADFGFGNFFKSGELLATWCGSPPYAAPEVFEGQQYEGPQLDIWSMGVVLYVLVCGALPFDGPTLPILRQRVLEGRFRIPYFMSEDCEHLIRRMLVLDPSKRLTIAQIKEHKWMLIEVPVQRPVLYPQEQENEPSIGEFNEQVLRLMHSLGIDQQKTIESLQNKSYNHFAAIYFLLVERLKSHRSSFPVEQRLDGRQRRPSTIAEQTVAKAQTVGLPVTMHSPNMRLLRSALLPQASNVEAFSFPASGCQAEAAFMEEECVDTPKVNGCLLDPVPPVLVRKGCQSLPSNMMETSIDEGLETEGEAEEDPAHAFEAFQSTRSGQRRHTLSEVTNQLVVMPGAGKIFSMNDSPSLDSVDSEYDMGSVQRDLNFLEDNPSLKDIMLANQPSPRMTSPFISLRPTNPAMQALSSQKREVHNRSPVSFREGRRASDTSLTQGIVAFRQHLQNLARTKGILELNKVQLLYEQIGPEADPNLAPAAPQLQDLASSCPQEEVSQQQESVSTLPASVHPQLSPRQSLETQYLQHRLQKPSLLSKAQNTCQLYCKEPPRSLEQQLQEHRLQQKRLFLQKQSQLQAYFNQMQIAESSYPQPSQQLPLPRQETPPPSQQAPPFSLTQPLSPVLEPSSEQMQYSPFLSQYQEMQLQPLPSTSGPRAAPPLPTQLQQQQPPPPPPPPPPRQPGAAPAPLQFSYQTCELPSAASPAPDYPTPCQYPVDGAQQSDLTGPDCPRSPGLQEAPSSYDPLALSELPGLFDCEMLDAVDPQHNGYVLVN

| IC50 [1] [nM] | IC50 [2] [nM] | IC50 [3] [nM] | SMILES |
| --- | --- | --- | --- |
| 1030 | 151 | 211 | Cc1ccc(Nc2ccc3ncn(-c4ccc(CO)c(-n5nc(C#N)cc5C)n4)c3c2)nn1 [Example 269, 5-Methyl-1-[3-methylol-6-[6-[(6-methylpyridazin-3-yl)amino]benzimidazol-1-yl]-2-pyridyl]pyrazole-3-carbonitrile; formic acid] |
| 0.2 | 134 | 0.8 | Cc1ccc(Nc2ccc3c(c2)ncn3-c2ccc(CO)c(-n3nc(C#N)cc3C)n2)nn1 [Example 270, 5-Methyl-1-[3-methylol-6-[5-[(6-methylpyridazin-3-yl)amino]benzimidazol-1-yl]-2-pyridyl]pyrazole-3-carbonitrile; formic acid] |
| 2.1 | 895 | 7.3 | CCn1ncc(-c2nc(-n3cnc4cc(Nc5ccc(C)nn5)ccc43)ccc2C(C)O)c1C (stereo not drawn) [Example 271, 1-[2-(1-Ethyl-5-methyl-pyrazol-4-yl)-6-[5-[(6-methylpyridazin-3-yl)amino]benzimidazol-1-yl]-3-pyridyl]ethanol; formic acid] |
| 1.2 | 193 | 2.4 | Cc1ccc(Nc2ccc3c(c2)ncn3-c2ccc(C(C)O)c(-c3cnn(CC4CC4)c3C)n2)nn1 (stereo not drawn) [Example 272, 1-[2-[1-(Cyclopropylmethyl)-5-methyl-pyrazol-4-yl]-6-[5-[(6-methylpyridazin-3-yl)amino]benzimidazol-1-yl]-3-pyridyl]ethanol; formic acid] |
| 1.5 | 115 | 1.2 | Cc1ccc(Nc2ccc3c(c2)ncn3-c2ccc(C(C)O)c(-c3cnn(CC4CCC4)c3C)n2)nn1 (stereo not drawn) [Example 273, 1-[2-[1-(Cyclobutylmethyl)-5-methyl-pyrazol-4-yl]-6-[5-[(6-methylpyridazin-3-yl)amino]benzimidazol-1-yl]-3-pyridyl]ethanol; formic acid] |
| 1.1 | 120 | 1.2 | Cc1ccc(Nc2ccc3c(c2)ncn3-c2ccc(C(C)O)c(-c3cn(CC4CCC4)nc3C)n2)nn1 (stereo not drawn) [Example 274, 1-[2-[1-(Cyclobutylmethyl)-3-methyl-pyrazol-4-yl]-6-[5-[(6-methylpyridazin-3-yl)amino]benzimidazol-1-yl]-3-pyridyl]ethanol] |
| 15.9 | 800 | 6.1 | Cc1ccc(Nc2cc3ncn(-c4ccc(C(C)O)c(-n5nc(C#N)cc5C)n4)c3cc2C(F)(F)F)nn1 (stereo not drawn) [Example 275, 1-[3-(1-hydroxyethyl)-6-[5-[(6-methylpyridazin-3-yl)amino]-6-(trifluoromethyl)benzimidazol-1-yl]-2-pyridyl]-5-methyl-pyrazole-3-carbonitrile] |
| 1.8 | 82 | 2.3 | COC(=N)c1cc(C)n(-c2nc(-n3cnc4cc(Nc5ccc(C)nn5)ccc43)ccc2[C@H](C)O)n1 [Example 276, 1-[3-[(1S)-1-hydroxyethyl]-6-[5-[(6-methylpyridazin-3-yl)amino]benzimidazol-1-yl]-2-pyridyl]-5-methyl-pyrazole-3-carboximidic acid methyl ester] |
| 1.8 | 521 | 2 | Cc1ccc(Nc2ccc3c(c2)ncn3-c2ccc(C(C)O)c(-c3cn(C4CC4(F)F)nc3C)n2)nn1 (stereo not drawn) [Example 277, 1-[2-[1-(2,2-difluorocyclopropyl)-3-methyl-pyrazol-4-yl]-6-[5-[(6-methylpyridazin-3-yl)amino]benzimidazol-1-yl]-3-pyridyl]ethanol] |
| 4.7 | 249 | 2 | COC(C)Cn1cc(-c2nc(-n3cnc4cc(Nc5ccc(C)nn5)ccc43)ccc2C(C)O)c(C)n1 (stereo not drawn) [Example 278, 1-[2-[1-(2-methoxypropyl)-3-methyl-pyrazol-4-yl]-6-[5-[(6-methylpyridazin-3-yl)amino]benzimidazol-1-yl]-3-pyridyl]ethanol] |
| 2.9 | 532 | 4.7 | COC(C)Cn1ncc(-c2nc(-n3cnc4cc(Nc5ccc(C)nn5)ccc43)ccc2C(C)O)c1C (stereo not drawn) [Example 279, 1-[2-[1-(2-methoxypropyl)-5-methyl-pyrazol-4-yl]-6-[5-[(6-methylpyridazin-3-yl)amino]benzimidazol-1-yl]-3-pyridyl]ethanol] |
| 149 | 39 | 26.3 | Cc1ccc(Nc2ccc3ncn(-c4ccc([C@H](C)O)c(-n5nc(C#N)cc5C)n4)c3c2)nn1 [Example 280, 1-[3-[(1S)-1-hydroxyethyl]-6-[6-[(6-methylpyridazin-3-yl)amino]benzimidazol-1-yl]-2-pyridyl]-5-methyl-pyrazole-3-carbonitrile] |
| 1.2 | 46 | 0.6 | Cc1ccc(Nc2ccc3c(c2)ncn3-c2ccc(C(C)O)c(-c3cn(CC(C)(F)F)nc3C)n2)nn1 (stereo not drawn) [Example 281, 1-[2-[1-(2,2-difluoropropyl)-3-methyl-pyrazol-4-yl]-6-[5-[(6-methylpyridazin-3-yl)amino]benzimidazol-1-yl]-3-pyridyl]ethanol] |
| 0.8 | 7 | 0.4 | Cc1ccc(Nc2cc3ncn(-c4ccc(C(C)O)c(-n5nc(C#N)cc5C)n4)c3cc2OC2COC2)nn1 (stereo not drawn) [Example 282, 1-[3-(1-hydroxyethyl)-6-[5-[(6-methylpyridazin-3-yl)amino]-6-(oxetan-3-yloxy)benzimidazol-1-yl]-2-pyridyl]-5-methyl-pyrazole-3-carbonitrile] |
| 7.9 | 1050 | 21.5 | CCc1cc(-c2nc(-n3cnc4cc(Nc5ccc(C)nn5)ccc43)ccc2C(C)O)c(C)cn1 (stereo not drawn) [Example 283, 1-[2-(2-ethyl-5-methyl-4-pyridyl)-6-[5-[(6-methylpyridazin-3-yl)amino]benzimidazol-1-yl]-3-pyridyl]ethanol] |
| 1.9 | 167 | 2.1 | Cc1ccc(Nc2ccc3c(c2)ncn3-c2ccc(C(C)O)c(-c3cnn(CC(C)(F)F)c3C)n2)nn1 (stereo not drawn) [Example 284, 1-[2-[1-(2,2-difluoropropyl)-5-methyl-pyrazol-4-yl]-6-[5-[(6-methylpyridazin-3-yl)amino]benzimidazol-1-yl]-3-pyridyl]ethanol] |
| 6.4 | 497 | 11.6 | COc1cc(-c2nc(-n3cnc4cc(Nc5ccc(C)nn5)ccc43)ccc2C(C)O)c(C)cn1 (stereo not drawn) [Example 285, 1-[2-(2-methoxy-5-methyl-4-pyridyl)-6-[5-[(6-methylpyridazin-3-yl)amino]benzimidazol-1-yl]-3-pyridyl]ethanol] |
| 0.4 | 109 | 0.8 | Cc1ccc(Nc2ccc3c(c2)ncn3-c2ccc([C@H](C)O)c(-n3nc(C(F)F)cc3C(F)F)n2)nn1 [Example 287, (1S)-1-[2-[3,5-bis(difluoromethyl)pyrazol-1-yl]-6-[5-[(6-methylpyridazin-3-yl)amino]benzimidazol-1-yl]-3-pyridyl]ethanol] |
| 5.8 | 1600 | 13.2 | Cc1ccc(Nc2ccc3c(c2)ncn3-c2ccc([C@@H](C)O)c(-n3nc(C(F)F)cc3C(F)F)n2)nn1 [Example 288, (1R)-1-[2-[3,5-bis(difluoromethyl)pyrazol-1-yl]-6-[5-[(6-methylpyridazin-3-yl)amino]benzimidazol-1-yl]-3-pyridyl]ethanol] |
| 5.8 | 595 | 12.4 | Cc1ccc(Nc2ccc3c(c2)ncn3-c2ccc(C(C)O)c(-c3cc(C4CC4)ncc3C)n2)nn1 (stereo not drawn) [Example 289, 1-[2-(2-cyclopropyl-5-methyl-4-pyridyl)-6-[5-[(6-methylpyridazin-3-yl)amino]benzimidazol-1-yl]-3-pyridyl]ethanol] |
| 0.5 | 54 | 0.6 | Cc1ccc(Nc2ccc3c(c2)ncn3-c2ccc(C(C)O)c(-n3nc(OC(F)F)cc3C)n2)nn1 (stereo not drawn) [Example 290, 1-[2-[3-(difluoromethoxy)-5-methyl-pyrazol-1-yl]-6-[5-[(6-methylpyridazin-3-yl)amino]benzimidazol-1-yl]-3-pyridyl]ethanol] |
| 11.9 | 1 | 1.2 | Cc1ccc(Nc2ccc3ncn(-c4ccc(C(C)O)c(-n5nc(C#N)c6c5CCN(C)C6)n4)c3c2)nn1 (stereo not drawn) [Example 291, 1-[3-(1-hydroxyethyl)-6-[6-[(6-methylpyridazin-3-yl)amino]benzimidazol-1-yl]-2-pyridyl]-5-methyl-6,7-dihydro-4~{H}-pyrazolo[4,3-c]pyridine-3-carbonitrile] |
| 24.2 | 617 | 34.2 | Cc1cc(S(C)(=O)=O)c(Nc2ccc3c(c2)ncn3-c2ccc(C(C)O)c(-n3nc(C#N)cc3C)n2)nn1 (stereo not drawn) [Example 292, 1-[3-(1-hydroxyethyl)-6-[5-[(6-methyl-4-methylsulfonyl-pyridazin-3-yl)amino]benzimidazol-1-yl]-2-pyridyl]-5-methyl-pyrazole-3-carbonitrile] |
| 2.8 | 132 | 6 | COCCOCCOCCOCCOCCOCCOCCOc1ccc(Nc2ccc3c(c2)ncn3-c2ccc(C(C)O)c(-n3nc(C#N)cc3C)n2)nn1 (stereo not drawn) [Example 293, 1-[3-(1-hydroxyethyl)-6-[5-[[6-[2-[2-[2-[2-[2-[2-(2-methoxyethoxy)ethoxy]ethoxy]ethoxy]ethoxy]ethoxy]ethoxy]pyridazin-3-yl]amino]benzimidazol-1-yl]-2-pyridyl]-5-methyl-pyrazole-3-carbonitrile] |
